Counter-ions that a name gives are not always drawn. Like-named read-outs stand apart in the source and are kept apart here.
Experiments:
[1] = target: T1, cloned human dopamine D2Long receptors (Homo sapiens, UniProt P14416); test: biochemical; assay type: binding
T1 construct: expressed in transfected cells; membranes used
Experimental: A single high expressing clonal cell line was isolated and membranes from this cell line were used for receptor binding assays. […] The incubation buffer contained: 50 mM Tris, 120 mM NaCl; 5 mM Kcl; 2 mM CaCl2; 1 mM MgCl2; pH 7.7). […] Incubations were performed at 37 °C in a shaking water bath for 30 min, terminated by rapid filtration through Whatman GF/B filters (presoaked in 0.3% polyethyleneimine), and counted in a liquid scintillation counter. Non-specific binding was defined as that remaining in the presence of 3 µM eticlopride. […] The percent inhibition at each drug concentration was the average of duplicate determinations.
For most assays, a 100mM stock solution of test compound with solvent and buffer is prepared so that concentrations of 10^-5 to 10^-8M are attained. Cheng-Prisoff determination (Ki's) are performed using Prism software.

[2] = tested on: CD-1 male mice; test: Climbing mouse assay (CMA): antagonism of apomorphine-induced climbing; assay type: in vivo
Experimental: This test may be used as to identify compounds useful in treating psychosis. Costall, B. et al, Eur. J. Pharm. 50: 39-50 (1978); Protais, P., et al., Psychopharmacology 50:1-6 (1976). […] This effect of apomorphine is antagonized by the D2 receptor antagonist.
CD-1 male mice (20-30 grams) are assigned to groups of 8 and individually placed in wire mesh stick cages and allowed one hour for adaptation to new environment. Apomorphine is injected at 1.5 mg/kg subcutaneously which is a dose which causes climbing in all subjects for thirty minutes. Test compounds are administered intraperitoneally thirty minutes prior to the apomorphine administration at a dose of 20 mg/kg.
For evaluation of climbing, three readings are taken at ten, twenty and thirty minutes after apomorphine administration according to the following scale:
The climbing scores are individually totaled (maximal score: 6 per mouse over three readings) and total score of the control (vehicle intraperitoneally (ip) and apomorphine subcutaneous) is set to 100%. ED50 values with 95% confidence limits calculated by a linear regression analysis of some of the compounds of the present invention as well as a standard antipsychotic agent (clozapine) are presented in Table 1.

[3] = Binding to Human D2Long Receptors, displacement of [3H]N-methyl spiroperidol (0.4 nM), membranes of transfected Chinese Hamster Ovary cells, 37 °C, 30 min, read-out: Ki
[4] = ip, thirty minutes prior to apomorphine 1.5 mg/kg subcutaneously, climbing scored at ten, twenty and thirty minutes, linear regression analysis, read-out: ED50

T1 sequence (P14416 whole entry): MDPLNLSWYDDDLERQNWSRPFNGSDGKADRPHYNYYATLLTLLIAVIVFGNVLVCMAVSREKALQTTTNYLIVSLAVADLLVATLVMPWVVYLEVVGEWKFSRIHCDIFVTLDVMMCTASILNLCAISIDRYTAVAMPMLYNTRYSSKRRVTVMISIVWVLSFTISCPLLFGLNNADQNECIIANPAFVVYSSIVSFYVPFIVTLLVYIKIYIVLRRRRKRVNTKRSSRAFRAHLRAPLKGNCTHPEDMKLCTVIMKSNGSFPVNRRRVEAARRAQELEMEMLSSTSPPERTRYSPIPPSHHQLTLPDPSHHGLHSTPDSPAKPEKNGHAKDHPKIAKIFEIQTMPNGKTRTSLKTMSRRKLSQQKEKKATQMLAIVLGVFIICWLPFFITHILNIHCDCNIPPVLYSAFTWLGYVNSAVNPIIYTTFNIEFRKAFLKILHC

Row | Compound | Ki [1, 3] | ED50 [2, 4] | further results
1 | CS(=O)(=O)N1CCC([C@@H]2Cc3c(ccc(O)c3O)[C@H](CN)O2)CC1 (relative stereo) [Example 3D, cis-1-(Aminomethyl)-3,4-dihydro-3-(1-methylsulfonyl-4-piperidinyl)-1H-2-benzopyran-5,6-diol Hydrobromide] | 4.2 µM |  | 
2 | NC[C@@H]1O[C@H](C2CCN(CCc3ccccc3)CC2)Cc2c1ccc(O)c2O (relative stereo) [Example 4D, cis-1-(Aminomethyl)-3,4-dihvdro-3-[1-(2-phenylethyl)-4-piperidinyl]-1H-2-benzopyran-5,6-diol Dihydrobromide Sesquihydrate] |  |  | ED50 [2]: 8.1 mg/kg
3 | Br.Br.CC(=O)Oc1ccc2c(c1OC(C)=O)C[C@@H](C1CCN(CCc3ccccc3)CC1)O[C@H]2CN (relative stereo) [Example 4E, cis-1-(Aminomethyl)-5,6-diacetoxy-3,4-dihydro-3-[1-(2-phenylethyl)-4-piperidinyl]-1H-2-benzopyran Dihydrobromide] | 1.52 µM | 11.1 mg/kg | 
4 | Br.Br.CNC[C@@H]1O[C@H](C2CCN(CCc3ccccc3)CC2)Cc2c1ccc(O)c2O (relative stereo) [Example 5, cis-1-(N-Methylaminomethyl)-3,4-dihydro-3-[1-(2-phenylethyl)-4-piperidinyl)-1H-2-benzopyran-5,6-diol Dihydrobromide] |  | 6.9 mg/kg | 
5 | CCN1CCC([C@@H]2Cc3c(ccc(O)c3O)[C@H](CN)O2)CC1 (relative stereo) [Example 8, cis-1-(Aminomethyl)-3,4-dihydro-3-(1-ethyl-4-piperidinyl)-1H-2-benzopyran-5,6-diol Dihydrobromide] | 2.51 µM |  | 
6 | Br.Br.NC[C@@H]1O[C@H](C2CCN(CCCc3noc4cc(F)ccc34)CC2)Cc2c1ccc(O)c2O (relative stereo) [Example 9, cis-1-(Aminomethyl)-3,4-dihydro-3-[1-[3-(6-fluoro-1,2-benzisoxazol-3-yl)propyl]piperidin-4-yl]-1H-2-benzopyran-5,6-diol Dihydrobromide] | 0.178 µM | 16 mg/kg | 
7 | CNC[C@@H]1O[C@H](C2CCN(CCc3ccc(OC)cc3)CC2)Cc2c1ccc(O)c2O (relative stereo) [Example 10, cis-3,4-Dihydro-3-[1-[2-(4-methoxyphenyl)ethyl]-4-piperidinyl]-1-(N-methylaminomethyl)-1H-2-benzopyran-5,6-diol Dihydrochloride] | 2.5 µM |  | 
8 | COc1ccc2c(c1OC)C[C@@H](C1CCN(CCCC(=O)c3ccc(F)cc3)CC1)O[C@H]2CNC=O.Cl (relative stereo) [Example 21, N-[3-[1-[4-(4-Fluorophenyl)-4-oxobutyl]-4-piperidinyl]-3,4-dihydro-5,6-dimethoxy-1H-2-benzopyran-1-ylmethyl]formamide Hydrochloride] |  | 19.6 mg/kg | 
9 | NC[C@@H]1O[C@H](C2CCN(CCc3cccs3)CC2)Cc2c1ccc(O)c2O (relative stereo) [Example 25, cis-1-Aminomethyl-3,4-dihydro-3-[1-(2-(thiophen-2-yl)-ethyl-4-piperidinyl]-1H-2-benzopyral-5,6-diol Dihydrochloride Hydrate] | 2.1 µM |  | 
10 | Cc1ccccc1CCN1CCC([C@@H]2Cc3c(ccc(O)c3O)[C@H](CN)O2)CC1 (relative stereo) [Example 26, cis-1-Aminomethyl-3,4-dihydro-3-[1-[2-(2-methylphenyl)ethyl]-4-piperidinyl]-1H-2-benzopyran-5,6-diol Dihydrochloride] | 0.684 µM |  | 
11 | CN1CCN(C2=Nc3cc(Cl)ccc3Nc3ccccc32)CC1 [Clozapine, reference compound] |  | 8.1 mg/kg | 
12 | O=CNC[C@@H]1O[C@H](C2CCN(CCCC(c3ccc(F)cc3)c3ccc(F)cc3)CC2)Cc2c1ccc1c2OC2(CCCCC2)O1 [Example 28, cis-N-[3-[1-[4,4-Bis-(4-fluorophenyl)butyl]-4-DiDeridinyl]-5,6-(cyclohexylidenedioxy)-3,4-dihydro-1H-2-benzopyran-1-ylmethyl]formamide Oxalate Hemihydrate] |  |  | Ki [1]: 0.639 µM
13 | cis-1-(3-[3-[4-[1-(Aminomethyl)-3,4-dihydro-5,6-dihydroxy-1H-2-benzopyran-3-yl]-1-piperidinyl]propoxy]-3-methoxyphenyl)ethanone Dihydrochloride Dihydrate [Example 31] | 1.1 µM |  | 
14 | cis-3-[1-[2-(4-Chlorophenyl)ethyl]--4-piperidinyl]-3,4-dihydro-1-(N-methylaminomethyl)-1H-2-benzopyran-5,6-diol dihydrochloride hemihydrate [Example 15] | 0.413 µM |  | 

Reference: EP1015446B1, “(4-PIPERIDINYL)-1H-2-BENZOPYRAN DERIVATIVES USEFUL AS ANTIPSYCHOTIC AGENTS” (Aventis Pharmaceuticals Inc., priority 1997, dated 1998)
